Measured values as given in article PMC3989207, “Subchronic Toxicological Study of Two Artemisinin Derivatives in Dogs” (PLoS ONE, 2014).
Read-outs that look alike come from different tables or passages of the source.

Assays:
beagle dogs [1] = experiment: Electrocardiography in the 13-week repeated-dose dog study; format: in vivo; conditions: for Heart rate: 6 mg kg^-1 per day (ART p.o., ARM i.m.), vs control group
Procedure: (§1) The first day of treatment was regarded as day one in the study. […] Oral administration was performed about 2 h after feeding. ARM was administered by a bolus intramuscular infusion through a 25-gauge needle at a constant volume of 2 ml kg^−1 once a day into the gluteal and infraspinous muscles. Two dogs of each sex from each group were allowed to recover without further treatment for an additional 4 weeks.
Electrocardiograms were recorded using an Auto Electrocardiogram (ECG-9130P, Nihon Kohden Corporation, Japan). Recordings were taken from each dog, while conscious, every 2 weeks from week-1. Leads I, II, III, aVR, aVL and aVF were utilized. The electrocardiography (ECG) parameters included heart rate, PR, QRS and QT interval, and QRS and T wave amplitudes. As the PQ and QT intervals vary with heart rate, they were adjusted to an RR-interval of 500 ms, corresponding to a heart rate of 120 bpm using the following equation: QT500 = QT – 0.084×(RR – 500).

beagle dogs [2] = experiment: Clinical chemistry in the 13-week repeated-dose dog study; format: in vivo
Procedure: as §1
(§2) Blood samples were collected from the femoral vein of each dog prior to treatment and every 2 weeks after the first day of treatment. Hematology parameters were measured using an automated hematology analyzer (Sysmex, XT-2000iv, Toa Medical Electronics Co. Ltd., Kobe, Japan) using standard methods. Test parameters included hemoglobin (Hb) levels, the hematocrit (Hct) fraction, erythrocyte (RBC) count, leukocyte (WBC) count, neutrophilic granulocyte fraction (NE%), monocyte fraction (MO%), lymphocyte levels (LY%), platelet count (PLT), reticulocyte count (RET%) and RBC morphology. The following clinical chemistry parameters were measured using a Hitachi-7180 Chemistry Analyzer (High-Technologies Corporation, Tokyo, Japan) and standard methods: glucose, blood urea nitrogen, inorganic phosphorus, creatinine, total protein, albumin, calcium, aspartate aminotransferase (AST), alanine aminotransferase, alkaline phosphatase, total bilirubin, creatine kinase (CK), sodium, potassium and chloride.

beagle dogs [3] = experiment: Hematology in the 13-week repeated-dose dog study; format: in vivo
Procedure: as §1, §2
The differential granulocytic and erythrocytic series (erythroid, myeloid blast cell count and the red ratio) were determined manually from blood smears.

[4] = Toxicokinetic analysis of plasma drug levels (HPLC); format: in vivo, dog; conditions: for AUC: 6 mg kg^−1 daily, ART p.o.; for maximum plasma concentration after dosing: daily i.m. 6 mg kg^−1
Procedure: as §1
For toxicokinetic analysis, blood samples were collected on weeks 1, 2, 4, 8 and 13 at 0 (before dosing), 0.5, 1, 2, 4, 8, 12 and 24 h after dosing. Approximately 1 ml blood was drawn from the antebrachial, cephalic or jugular vein of three animals of each sex per time point and deposited into heparinized tubes for immediate centrifugation at 3000 rpm at 4°C for 10 min. The plasma was then immediately transferred to 2 ml polypropylene tubes and stored on dry ice. Samples were stored at −80°C until HPLC analysis.

beagle dogs [5] = experiment: Clinical observations; format: in vivo
Procedure: as §1
All dogs were assessed once daily for mortality and toxicological or other clinical signs, including behavioral changes (such as tremor, gait impairment, balance disturbance and auditory impairment), appetite, excreta (urinalysis for specific gravity, ketone bodies and pH), balance and coordination. Standard and acceptable veterinary health care practices were used during this evaluation to ensure good health of the animals.

beagle dogs [6] = experiment: Organ weights at necropsy; format: in vivo, dog
Procedure: as §1
Termination of treatment was scheduled to occur on weeks 4, 8 (two interim necropsies) and 13, followed by a 4-week recovery period. For pathological examinations, the animals were euthanized within 24 h of the final drug administration with sodium pentobarbital, followed by exsanguination via the femoral artery. A gross necropsy was performed, including a thorough visual examination of all the internal organs. Weights were obtained for the brain, heart, liver, spleen, lung, kidneys, adrenals, thyroid/parathyroids, thymus, pancreas and ovaries/testes/prostate, and organ-to-body weight ratios were calculated. For each animal, representative samples from approximately 48 organs and tissues were taken and fixed in neutral buffered 10% formalin, except for the sternum, which was retained in Helly’s fixative (1000 ml distilled water, 25 g potassium dichromate, 10 g sodium sulfate, 50 g mercuric chloride, 50 ml 40% formaldehyde). […]

Dogs = tested on: Dogs; parameters: method as in Classen et al., 1999 [30]; conditions: 20 mg kg^−1 per day, i.m. for 30 days, ref Classen et al., 1999 [30]; cited from earlier work
Rats [7] = tested on: Rats; parameters: method as in Akinlolu and Shokunbi, 2008 [41]; conditions: 25 mg kg^−1 per day, i.m. for 7 days, ref Akinlolu and Shokunbi, 2008 [41]; cited from earlier work
Rats [8] = tested on: Rats; parameters: method as in Xiao et al. (2002) [31]; conditions: cited from earlier work
[9] = parameters: method as in Li et al. (2006); conditions: applied to ARM plasma levels; ref Li et al. (2006); cited from earlier work
[10] = parameters: method as in PMID 11060779; conditions: cited from earlier work
[11] = weeks 4 and 6 post-treatment, vs control group (p<0.01)
[12] = week 2 until week 10 post-treatment, vs control groups (p<0.05)
[13] = oral 80 and 400 mg kg^−1 once every 2 weeks for 5 months, ref Xiao et al. (2002) [31]
[14] = oral high dose of 400 mg kg^−1, ref Xiao et al. (2002) [31]

CO[C@H]1O[C@@H]2O[C@@]3(C)CC[C@H]4[C@H](C)CC[C@@H]([C@H]1C)[C@@]24OO3 [ARM, artemether]
Heart rate (beagle dogs [1]; Week 4): - (“-” = No effect)
Heart rate (beagle dogs [1]; Week 8): - (“-” = No effect)
Heart rate (beagle dogs [1]; Week 13): - (“-” = No effect)
mean QT intervals (adjusted for heart rate, QT500) (beagle dogs [1]; week 3 until the final drug treatment, male and female dogs, vs vehicle control): prolonged
Clinical chemistry: AST(M) (beagle dogs [2]; Week 13, males, 6 mg kg^-1 per day): ↑↑AST(M)
serum AST (beagle dogs [2]; [11]): significant increases
serum CK (beagle dogs [2]; [11]): significant increases
serum albumin levels (beagle dogs [2]; weeks 4 and 10, same changes also in peanut oil only group): significant decrease
Hematology (overall) (beagle dogs [3]; Week 13, 6 mg kg^-1 per day): - (“-” = No effect)
MO% (beagle dogs [3]; females, after weeks 6, 8 and 10 (p<0.05)): significant increases
Hb levels (beagle dogs [3]; week 2): corresponding decrease
RBC counts (beagle dogs [3]; week 2): decrease
LY% (beagle dogs [3]; [12]): decreased
NE% (beagle dogs [3]; [12]): significantly increased
WBC count (beagle dogs [3]; [12]): significantly increased
RET% (beagle dogs [3]; week 10, males and females, vs peanut oil control group (p<0.05)): significant increase
AUC ([4]; both sexes, beagle, dog, plasma, other: ART p.o., ARM i.m., 6 mg/kg, week 8, ARM i.m., dog plasma, read-out: AUC8w): 10.9 ± 11.6 ng·h/mL
AUC ([4]; both sexes, beagle, dog, plasma, other: ART p.o., ARM i.m., 6 mg/kg, week four, ARM i.m., dog plasma, read-out: AUC4w): 739 ± 209 ng·h/mL
AUC(0-t) ([4]; both sexes, beagle, dog, plasma, other: ART p.o., ARM i.m., 6 mg/kg, read-out: AUC93D): 71.3 ± 56.6 ng·h/mL
Cmax ([4]; both sexes, beagle, im, week four, 6 mg kg^−1 daily i.m., dog plasma, read-out: C max, w4): 219 ± 41.3 ng/mL
half-life ([4]; both sexes, beagle, im, week four, 6 mg kg^−1 daily i.m., dog plasma, read-out: T 1/2, w4 (biological half-life) (converted)): 3 ± 1.16 h
Tmax ([4]; both sexes, beagle, im, week four, 6 mg kg^−1 daily i.m., dog plasma, read-out: T max, w4): 0.5 ± 0.03 h
maximum plasma concentration after dosing ([4]; day 1): 90.63 ± 24.99 µg/L
maximum plasma concentration after dosing ([4]; week 4): 219.10 ± 41.30 µg/L
maximum plasma concentration after dosing ([4]; week 8): 46.20 ± 13.15 µg/L
maximum plasma concentration after dosing ([4]; week 13): 43.85 ± 10.79 µg/L
behavioral changes (beagle dogs [5]; 6 mg kg^-1 per day i.m. for 13 weeks): not observed
main clinical signs (beagle dogs [5]; 6 mg kg^-1 per day i.m., after treatment for 4 weeks up to the end of the recovery period): skin thickening at the injection site and myonecrosis-like features
absolute or relative weights of brain, heart, liver, spleen, lungs, kidneys, adrenals, thyroid/parathyroids, pancreas, ovaries, testes or prostate (beagle dogs [6]; 6 mg kg^-1 per day, vs relative controls): no statistically significant effects
thymus weight (beagle dogs [6]; weeks 4 and 8, one of the two male dogs, i.m.): mild decrease
Effect (toxicology) (Dogs): Axonal damage in the cerebellar roof, pontine and vestibular nuclei, and in the raphe/ paralemniscal region; hypochromic, microcytic anemia
Effect (toxicology) (Rats [7]): Damage of trapezoid nuclei, abnormalities in balance and coordination
Hb levels (Rats [8]; [13]): reversible increase
QT interval (Rats [8]; [13]): No changes
reticulocyte count (Rats [8]; [13]): reversible reduction
liver finding (Rats [8]; [14]): transient focal vesicle degeneration of the liver
neuropathological alterations (Rats [8]; [14]): no evidence of neuropathological alterations
lowest observed neurotoxic effect level (plasma concentration) [9]: 40.92 ng/mL
solubility character [10]: fat soluble
